Where “and” joins values, the source holds several entries; their conditions need not be identical. Identical values can stand only once. Toxic doses and inconclusive results are not listed. No stated cut-off is given here; in the data, active means T/C of 150% or more; inactive means T/C below 125%.
System: L1210 leukemia ip in BDF1 mice, survival T/C
Assay: NCI In Vivo Anticancer Drug Screen. Data for tumor model L1210 Leukemia (intraperitoneal) in B6D2F1 (BDF1) mice
Details: endpoint: mean survival time, higher = longer survival
Outline: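 Antitumor effect is assessed in tumor-bearing animals. Survival in the compound arm is compared with a vehicle-dosed control arm and expressed as their quotient.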

[1] = dose: 100.0 mg/kg/injection, schedule: Q04DX003 (ip), vehicle: Klucel (hydroxypropylcellulose) (HPC)
[2] = dose: 200.0 mg/kg/injection, schedule: Q04DX003 (ip), vehicle: Klucel (hydroxypropylcellulose) (HPC)
[3] = dose: 400.0 mg/kg/injection, schedule: Q04DX003 (ip), vehicle: Klucel (hydroxypropylcellulose) (HPC)
[4] = dose: 50.0 mg/kg/injection, schedule: Q01DX001 (ip), vehicle: saline
[5] = dose: 100.0 mg/kg/injection, schedule: Q01DX001 (ip), vehicle: saline
[6] = dose: 200.0 mg/kg/injection, schedule: Q01DX001 (ip), vehicle: saline
[7] = dose: 100.0 mg/kg/injection, schedule: Q01DX001 (ip), vehicle: carboxymethylcellulose (CMC)
[8] = dose: 200.0 mg/kg/injection, schedule: Q01DX001 (ip), vehicle: carboxymethylcellulose (CMC)
[9] = dose: 400.0 mg/kg/injection, schedule: Q01DX001 (ip), vehicle: carboxymethylcellulose (CMC)
[10] = dose: 100.0 mg/kg/injection, schedule: Q01DX009 (ip), vehicle: Klucel (hydroxypropylcellulose) (HPC)
[11] = dose: 200.0 mg/kg/injection, schedule: Q01DX009 (ip), vehicle: Klucel (hydroxypropylcellulose) (HPC)
[12] = dose: 400.0 mg/kg/injection, schedule: Q01DX009 (ip), vehicle: Klucel (hydroxypropylcellulose) (HPC)
[13] = dose: 100.0 mg/kg/injection, schedule: Q04DX003 (ip), vehicle: saline with Tween-80
[14] = dose: 50.0 mg/kg/injection, schedule: Q01DX009 (ip), vehicle: saline with Tween-80
[15] = dose: 100.0 mg/kg/injection, schedule: Q01DX009 (ip), vehicle: saline with Tween-80
[16] = dose: 200.0 mg/kg/injection, schedule: Q04DX003 (ip), vehicle: saline with Tween-80
[17] = dose: 25.0 mg/kg/injection, schedule: Q04DX003 (ip), vehicle: Klucel (hydroxypropylcellulose) (HPC)
[18] = dose: 50.0 mg/kg/injection, schedule: Q04DX003 (ip), vehicle: Klucel (hydroxypropylcellulose) (HPC)

Measured: T/C

O=C(Nc1cccc(Cl)c1)OCC#CCCl
inactive: dose: 50.0 mg/kg/injection, schedule: Q01DX001 (ip), vehicle: saline sonified 97 % of control

c1cc[c]([Sn]([S]c2ncnc3c2nc[n]3[Sn]([c]2ccccc2)([c]2ccccc2)[c]2ccccc2)([c]2ccccc2)[c]2ccccc2)cc1.c1cc[c]([Sn]([S]c2ncnc3nc[nH]c23)([c]2ccccc2)[c]2ccccc2)cc1
inactive: dose: 5.0 mg/kg/injection, schedule: Q01DX001 (ip), vehicle: other 122 % of control | dose: 10.0 mg/kg/injection, schedule: Q01DX001 (ip), vehicle: other 100 % of control | dose: 20.0 mg/kg/injection, schedule: Q01DX001 (ip), vehicle: other 100 % of control

Cc1cc(S(=O)(=O)F)ccc1NC(=O)NCc1ccc([N+](=O)[O-])cc1Cl
inactive: [1] 112 % of control | [2] 101 % of control

CCOC1(OCC)CCC2(CC1)c1ccccc1-c1ccccc12
inactive: [1] 92 % of control | [2] 93 % of control | [3] 95 % of control

NC(=S)N/N=C1/CCCCC12CCCCC2
inactive: [4] 116 % of control | [5] 91 % of control | [6] 124 % of control | dose: 400.0 mg/kg/injection, schedule: Q01DX001 (ip), vehicle: saline 100 % of control

O=C(Nc1cccc(Cl)c1)Nc1ccc(Cl)c(C(F)(F)F)c1
inactive: dose: 50.0 mg/kg/injection, schedule: Q01DX001 (ip), vehicle: carboxymethylcellulose (CMC) 94 % of control | [7] 105 % of control | [8] 100 % of control | [9] 102 % of control

N#CC1C2C=CC(CC2)C1C#N (configuration not stated) (tested in a mixture with another compound)
inactive: dose: 0.25 mg/kg/injection, schedule: Q01DX Z (ip), vehicle: carboxymethylcellulose (CMC) 95 % of control | dose: 0.5 mg/kg/injection, schedule: Q01DX Z (ip), vehicle: carboxymethylcellulose (CMC) 93 % of control | dose: 1.0 mg/kg/injection, schedule: Q01DX Z (ip), vehicle: carboxymethylcellulose (CMC) 95 % of control | dose: 2.0 mg/kg/injection, schedule: Q01DX Z (ip), vehicle: carboxymethylcellulose (CMC) 93 % of control | dose: 5.0 mg/kg/injection, schedule: Q01DX001 (ip), vehicle: saline 98 % of control | dose: 10.0 mg/kg/injection, schedule: Q01DX001 (ip), vehicle: saline 95 % of control

Clc1ccc(C=Nc2cccc3ccccc23)c(Cl)c1
inactive: [10] 90 % of control | [11] 98 % of control | [12] 93 % of control

COc1ccc(OC(=O)Nc2ccc(Cl)cc2OC)cc1
inactive: [10] 92 % of control | [11] 95 % of control

CC1=NC2(CCCCC2)C[N+]1(Cc1ccccc1)Cc1ccccc1
inactive: [13] 94 % of control

O=C(Nc1ccccc1C(F)(F)F)OCCOc1ccc([N+](=O)[O-])cc1
inactive: [1] 89 % of control | [2] 87 % of control | [3] 92 % of control

CN(C)Cc1ccncc1
inactive: [4] 101 % of control | [14] 93 % of control | dose: 50.0 mg/kg/injection, schedule: Q04DX003 (ip), vehicle: saline with Tween-80 92 % of control | [5] 101 % of control | [15] 101 % of control | [13] 92 % of control | [6] 101 % of control | dose: 200.0 mg/kg/injection, schedule: Q01DX009 (ip), vehicle: saline with Tween-80 96 % of control | [16] 95 % of control

[Cl][Hg][Cl].c1ccc(N=P(c2ccccc2)(c2ccccc2)c2ccccc2)cc1
inactive: dose: 9.38 mg/kg/injection, schedule: Q01DX001 (ip), vehicle: other 96 % of control | dose: 18.75 mg/kg/injection, schedule: Q01DX001 (ip), vehicle: other 102 % of control

CN(C)S(=O)(=O)c1ccc(CC(O)(c2ccccc2)c2ccccc2)cc1
inactive: dose: 88.8 mg/kg/injection, schedule: Q01DX001 (ip), vehicle: carboxymethylcellulose (CMC) 105 % of control and 91 % of control | [7] 98 % of control | dose: 133.0 mg/kg/injection, schedule: Q01DX001 (ip), vehicle: carboxymethylcellulose (CMC) 120 % of control and 91 % of control | [8] 96 % of control and 109 % of control | dose: 300.0 mg/kg/injection, schedule: Q01DX001 (ip), vehicle: carboxymethylcellulose (CMC) 93 % of control and 97 % of control | [9] 104 % of control

CC1([N+](=O)[O-])COP(=O)(Nc2cccc(Cl)c2)OC1 (configuration not stated)
inactive: [7] 95 % of control | [8] 95 % of control | [9] 101 % of control

O=P(Cc1ccccc1)(Cc1ccccc1)c1ccccc1
inactive: [17] 102 % of control | [18] 118 % of control | [1] 95 % of control and 104 % of control

O=C1OCC/C1=C\NCCCCCCCCN/C=C1\CCOC1=O
inactive: dose: 100.0 mg/kg/injection, schedule: Q04DX002 (ip), vehicle: Klucel (hydroxypropylcellulose) (HPC) 97 % of control | dose: 200.0 mg/kg/injection, schedule: Q04DX002 (ip), vehicle: Klucel (hydroxypropylcellulose) (HPC) 108 % of control | dose: 400.0 mg/kg/injection, schedule: Q04DX002 (ip), vehicle: Klucel (hydroxypropylcellulose) (HPC) 97 % of control

CC(C)CCNC(=O)NS(=O)(=O)c1ccc(Cl)cc1
inactive: [13] 107 % of control | [16] 97 % of control | dose: 400.0 mg/kg/injection, schedule: Q04DX003 (ip), vehicle: saline with Tween-80 100 % of control

COc1ccc(/C=N/NC(=O)CNC(=O)Nc2cccc(Cl)c2Cl)cc1
inactive: [14] 93 % of control | [15] 96 % of control

Cc1ccccc1-n1c(C)cc(=O)c(C(=O)Cl)c1C
inactive: [17] 95 % of control | [18] 95 % of control | dose: 75.0 mg/kg/injection, schedule: Q04DX003 (ip), vehicle: Klucel (hydroxypropylcellulose) (HPC) 97 % of control | [1] 103 % of control | [2] 110 % of control

NCCSSCCN
inactive: dose: 24.0 mg/kg/injection, schedule: Q04DX002 (ip), vehicle: saline with Tween-80 98 % of control | dose: 60.0 mg/kg/injection, schedule: Q04DX002 (ip), vehicle: saline with Tween-80 95 % of control | dose: 100.0 mg/kg/injection, schedule: Q04DX002 (ip), vehicle: saline 93 % of control | dose: 150.0 mg/kg/injection, schedule: Q04DX002 (ip), vehicle: saline with Tween-80 91 % of control | dose: 200.0 mg/kg/injection, schedule: Q04DX002 (ip), vehicle: saline 107 % of control

CCN(CC)CCNc1cccc2sc3ccccc3c(=O)c12
inactive: dose: 50.0 mg/kg/injection, schedule: Q01DX009 (ip), vehicle: Klucel (hydroxypropylcellulose) (HPC) 92 % of control | [10] 94 % of control | [11] 94 % of control | [12] 100 % of control

CNN
inactive: dose: 20.0 mg/kg/injection, schedule: Q04DX003 (ip), vehicle: saline 101 % of control | dose: 25.0 mg/kg/injection, schedule: Q01DX009 (ip), vehicle: saline 103 % of control | dose: 40.0 mg/kg/injection, schedule: Q04DX003 (ip), vehicle: saline 121 % of control | dose: 80.0 mg/kg/injection, schedule: Q04DX003 (ip), vehicle: saline 111 % of control | dose: 100.0 mg/kg/injection, schedule: Q04DX003 (ip), vehicle: saline 96 % of control
